# In the METLIN SMRT retention time set (Domingo-Almenara et al. 2019):
# Assay: gradient 5% acetonitrile 3 min, to 50% in 2 min, to 85% in 15 min, held 3 min, 100 µL/min
# Conditions: column: Zorbax Extend-C18 2.1 x 50 mm; eluents: water / acetonitrile, 0.1% formic acid
# In short: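 Data were gathered over 3 months by HPLC coupled to a quadrupole time-of-flight mass spectrometer, operated in positive and negative ionization mode. Mixtures of ~100 pure standards ran on a Zorbax Extend-C18 column (2.1 × 50 mm, 1.8 μm) at 100 μL/min, with water and acetonitrile each containing 0.1% formic acid and dead and dwell volumes of 40 μL and 900 μL. Retention time was read from adduct peaks picked by computer and checked manually.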
row,Compound,RP-LC retention time [s]
1,O=C1/C(=C/c2ccc([N+](=O)[O-])cc2)CCc2ccccc21,1160
2,Cc1c(Cl)cccc1NC(=O)NC1CCN(c2ccc(F)cc2)C1=O (configuration not stated),864
3,COc1ccc(CC(=O)Nc2cnn(-c3ncc(N(C)C)cn3)c2)c(Cl)c1,753
4,O=C(CSc1ccc(F)cc1)N1CCC(COCc2ccccc2)CC1,1030
5,COc1ccc(S(=O)(=O)N2C[C@H]3CN(C(=O)NCC(C)C)C[C@@H](C2)O3)cc1,729
6,CC(C)NC(=O)N1CCC(c2nc(C(C)C)cs2)CC1,766
7,Cc1ccc(S(=O)(=O)Nc2n[nH]nc2C(N)=O)cc1,603
8,O=C(Nc1ccccc1)C1CCc2nc(N3CCN(C(=O)C4CCC4)CC3)sc2C1 (configuration not stated),608
9,COc1cccc(C(=O)NC2(C(F)(F)F)C(=O)N(CC(C)C)C3=C2C(=O)CC(C)(C)C3)c1 (configuration not stated),1040
10,C[C@@H](NC(=O)c1cccc(Cl)c1)C(=O)NCc1cscn1,652
11,COc1ccc(NC(=O)Cn2c(=O)c(CCC(=O)NC3CCCCC3)nc3ccccc32)c(OC)c1,839
12,Cc1ccc(-c2nc3ncccn3c2NCc2ccccc2)cc1C,785
13,O=C(NCc1ccco1)c1ccc(NC(=O)C2CCC2)cc1N1CCOCC1,750
14,COc1ccc(Cl)cc1S(=O)(=O)Nc1ccc2nc(N3CCN(C)CC3)cc(C(=O)O)c2c1,604
15,CCCN1C(=O)c2cc(C(=O)NCc3cccc(C)c3)nn2CC1(C)C(=O)NC1CCCC1 (configuration not stated),866
16,Cc1ccc2c(c1)N(S(C)(=O)=O)CCC(C(=O)Nc1cccc(OC(C)C)c1)O2 (configuration not stated),893
17,CCC(C)NC(=O)c1ccc2c(ccn2C)c1 (configuration not stated),779
18,O=C(CCn1c(N2CCCC2)nc2ccsc2c1=O)N1CCN(c2ccccc2)CC1,814
19,Cc1ccc(C)c(N2CCN(c3ccnc(SCC(=O)NC4CCCC4)n3)CC2)c1,886

row,Compound,RP-LC retention time [s]
1,COc1ccccc1-c1nc2nccc(-c3cc(OC)c(OC)c(OC)c3)n2n1,824
2,Cc1[nH]c(C(=O)N2CCC(CC(=O)NCc3ccc(F)cc3)CC2)c(C)c1C(=O)OC(C)C,818
3,c1nc(NC2CCCCCC2)c2[nH]cnc2n1,564
4,CCN1CCCC1CNS(=O)(=O)c1ccc2c(c1)CCN2C(=O)CCC(=O)N1CCCCC1 (configuration not stated),620
5,O=C(Nc1cc(F)ccc1Cl)c1cnc(-c2ccc(F)cc2)nc1-c1ccncc1,1010
6,Cn1c(N2CCC(C(=O)N3CCN(c4ccccc4F)CC3)CC2)cc(=O)n(C)c1=O,716
7,CSc1nc2ccc(NS(=O)(=O)c3ccc(Br)s3)cc2s1,994
8,CC(C(=O)NCCN(C)C)C1CCN(C(=O)c2cc3cc(Cl)ccc3[nH]2)CC1 (configuration not stated),649
9,CC(C)Cn1cc(S(=O)(=O)N2CCN(c3cccc(Cl)c3)CC2)c2cccnc21,1250
10,O=C(CN1CCc2ccccc2C1C(=O)N1CCCCC1)NCc1cccc(Cl)c1 (configuration not stated),913
11,Cc1nc(CCNS(=O)(=O)c2ccc(Cl)c(C)c2)no1,812
12,CC(C)CN1C(=O)c2cccn2CC1C(=O)NCCCN1CCN(C)CC1 (configuration not stated),548
13,CC(C)c1ccc(-n2c3c(cc(C(=O)N4CCCCC4)c2=O)C(=O)CCC3)cc1,884
14,CCOC(=O)Cc1sc(Nc2c(C)n[nH]c2C)nc1-c1ccccc1,688
15,NC(=O)C1CCN(C(=O)c2ccc(Cl)c(Cl)c2)CC1,656
16,COCCCn1c(=O)c2ccccc2n(Cc2nc(-c3cccc(OC)c3)no2)c1=O,1040
17,CCCOC(=O)C1=CN(Cc2ccccc2)S(=O)(=O)N=C1C,1020
18,Clc1ccc(Cl)c(-c2ccc(CNCCCn3ccnc3)o2)c1,589
